Where two headings read alike, the source gives them in different places. Numbered stars: 1 amine (or outer) side, 2 acyl side, 3 side chain; on linkers, the order of the positions; unused ones are H or OH. Side chains are listed from the residue outwards. Ends that are not written are not given here. Peptide text beside a SMILES is read from it. * marks the point of attachment. C20 diacid = O=C(O)CCCCCCCCCCCCCCCCCCC(=O)*; γGlu = O=C(O)[C@H](CCC(=O)[*:2])N[*:1]; AEEA = NCCOCCOCC(=O)O

The results in this text go back to patent US20230233650A1, “NOVEL FATTY ACID MODIFIED UROCORTIN 2 DERIVATIVES AND THE USES THEREOF” (Novo Nordisk A/S, priority 2021, published 2023).

One data set addresses T1, Human CRF2 receptor (Homo sapiens, UniProt Q13324).
T1 construct: host or cells: CHO-K1 (membrane preparation)
T1 sequence (Q13324 1-411): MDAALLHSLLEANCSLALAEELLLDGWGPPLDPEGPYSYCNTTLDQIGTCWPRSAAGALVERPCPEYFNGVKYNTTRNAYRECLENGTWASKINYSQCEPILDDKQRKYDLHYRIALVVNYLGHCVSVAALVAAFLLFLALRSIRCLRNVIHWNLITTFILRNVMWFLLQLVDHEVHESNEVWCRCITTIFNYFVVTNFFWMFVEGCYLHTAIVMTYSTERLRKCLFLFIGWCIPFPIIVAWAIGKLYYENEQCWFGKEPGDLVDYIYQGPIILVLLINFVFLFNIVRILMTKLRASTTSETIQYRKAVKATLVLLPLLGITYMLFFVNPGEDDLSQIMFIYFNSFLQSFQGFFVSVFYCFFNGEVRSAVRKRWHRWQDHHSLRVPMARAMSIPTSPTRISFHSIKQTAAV
The experiment in a line: CRF2 receptor binding, scintillation proximity assay (SPA). Particulars: displacement of [125I]-Sauvagine, CHO-K1 cell membranes. How it is done: (§1) The purpose of this example was to test the in vitro binding of the compounds of the invention to receptor subtypes CRF1 and CRF2. The in vitro binding of the compounds was determined in a scintillation proximity assay (SPA) as described below. The native, human Ucn1 and Ucn2 peptides are included as references. Scintillation Proximity Assay: […] Both cell lines were cultured at 37° C. in a humidified atmosphere with 5% CO2. […] Membranes were prepared by the following protocol: cultured cells were washed twice with cold Dulbecco’s phosphate buffered saline and detached using TrypLE™ (ThermoFisher) and transferred to tubes and centrifuged for 5 minutes at 1000 g at +4° C. Pellets were resuspended in ice cold homogenization buffer (20 mM Hepes pH 7.1, 5 mM MgCl2, 1 mg/ml Bacitracin with 2 complete EDTA-free protease inhibitor cocktail tablets/50 ml (Roche)) and then homogenized for 30 seconds using a Ultra-Turrax T25 tissue homogenizer (IKA) at medium speed. The homogenate was centrifuged at 35,000 g for 15 minutes at +4° C. using an ultracentrifuge, and the supernatant was discarded, and fresh homogenization buffer was added. Homogenization of the pellet was repeated a total of three times. The final pellet was resuspended in a few millilitres of homogenization buffer and protein concentration was determined using the Bradford method. The membrane preparation was transferred to cryotubes, and the aliquots were stored at -80° C. Each membrane preparation was subsequently titrated to give an appropriate window in the assay. Test procedure: […] Plates were sealed and incubated at 25° C. for 2 hours in a plate shaker set at 400 rpm and thereafter centrifuged at 1500 rpm for 10 minutes. SPA plates were let to stand at room temperature for about 16 hours prior to reading on microplate scintillation counter. Displacement of radioligand was measured as reduction in luminescence, and IC50 values were calculated by nonlinear regression analysis of four parameter sigmoidal dose-response curves.

Another data set addresses T2, Human CRF1 receptor (Homo sapiens, UniProt P34998).
T2 construct: host or cells: CHO-K1 (membrane preparation)
T2 sequence (P34998 24-415): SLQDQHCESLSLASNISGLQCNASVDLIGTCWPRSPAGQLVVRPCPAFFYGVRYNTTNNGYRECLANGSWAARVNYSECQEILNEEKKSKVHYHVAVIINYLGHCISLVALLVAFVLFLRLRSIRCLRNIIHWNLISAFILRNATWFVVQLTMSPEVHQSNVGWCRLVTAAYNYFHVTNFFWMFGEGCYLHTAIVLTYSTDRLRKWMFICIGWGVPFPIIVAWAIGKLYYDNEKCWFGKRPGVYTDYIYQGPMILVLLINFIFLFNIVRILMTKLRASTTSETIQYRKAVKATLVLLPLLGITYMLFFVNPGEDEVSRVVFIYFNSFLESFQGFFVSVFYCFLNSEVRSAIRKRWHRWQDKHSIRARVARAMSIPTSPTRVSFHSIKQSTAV
The data set can be described thus: CRF1 receptor binding, scintillation proximity assay (SPA). To be noted: displacement of [125I]-Sauvagine, CHO-K1 cell membranes. The method, then: as §1

For data set [1] the following is noted: for Average purity loss per week: 8 mM sodium phosphate buffer pH 7.4, 0.7-1.1 mM, 37° C., 0-4 weeks, UPLC.
Description: The purpose of the study was to evaluate the chemical stability of a liquid pharmaceutical formulation comprising test compound. The chemical stability was be determined by measuring test compound purity loss (i.e. reduction of test compound relative to other species in the sample) over time using ultra-performance liquid chromatography (UPLC) coupled to an ultra-violet detector operated in reversed-phase mode.
Equipment and analysis conditions: Acquity UPLC I-Class instrument (Waters, Milford, US) together with either an Acquity UPLC CSH Fluorophenyl column (PN. 186005353 from Waters, Milford, US) or an Acquity Premier CSH column (PN. 186009462 from Waters, Milford, US), both having the dimensions 150 × 2.1 mm, particle diameter 1.7 µm and kept at 30° C., was used for the test. Mobile phase A was 0.1% vol/vol trifluoroacetic acid in water and mobile phase B was 0.09% vol/vol trifluoroacetic acid in acetonitrile. The flow rate was 0.35 mL/min while elution was done with a linear gradient of 26% to 40% mobile phase B over 50 min for the UPLC Fluorophenyl column and 30% to 50% mobile phase B over 50 min for the Premier CSH column. Detection was performed at UV 214 nm with 2 µL of volume injected from each sample.
Samples were kept in glass vials for quiescent storage in a 37° C. incubation chamber and subjected to analysis after 0, 1, 2, 3 and 4 weeks. Samples were analysed using UPLC (as described above) with chromatogram peak area as a measure of test compound concentration. Purity was determined at each timepoint as the fraction, given in %, of test compound relative to other species present in the sample. The purity loss over time is the relative difference in % test compound between timepoints and it is reported in Table 7 as the average from the five timepoints.
Data set [2] is described as follows: Physical stability of liquid formulation (visible particles, turbidity). Particulars: 8 mM sodium phosphate; for Particle formation onset: pH 7.4, 31-37 mg/mL (Compound 7: 21 mg/mL), 37° C., 2 weeks, daily rotation. It counts as physicochemical. The method, then: The purpose of the study was to evaluate the physical stability of a liquid pharmaceutical formulation comprising test compound. The physical stability was determined as the formation of visible particles and the change in turbidity over time.
Test procedures: Test compound was dissolved in 8 mM sodium phosphate, pH 7.4 to a concentration of 31-37 mg/mL in vials (except for Compound 7 which was dissolved to a concentration of 21 mg/mL and Compound 5 which was not soluble at concentrations of ≥20 mg/mL). The vials were incubated at 37° C. for 2 weeks. Every day the vials were rotated end-to-end for 1 minute, 30 rounds. Every second day the vials were placed in front of a black background with strong LED light (Schott light source, KL2500) illuminating from below and a picture for analysis was taken.
Analysis: “Average pixel intensity” is a measure of turbidity of a liquid solution. It was measured by taking the average pixel intensity, ranging from 0 (black) to 255 (white), in a small square of a digital image of the glass vials containing a liquid solution and results are reported in FIG. 1. “Particle density” is a measure of visible particles in a liquid solution. It was measured by counting the number of visible particles in a region of a digital image of the glass vial containing a liquid solution and dividing with the area of the region and the results are reported in FIG. 2.

What is called IC50 is the concentration needed to halve the response being measured. A lower IC50 goes with higher potency. In the case of `CC[C@H](C)[C@H](NC(=O)[C@H](CCCNC(=N)N)NC(=O)[C@H](C)NC(=O)[C@H](CC(N)=O)NC(=O)[C@@H](NC(=O)[C@@H](NC(=O)[C@H](C)NC(=O)[C@H](CCC(N)=O)NC(=O)[C@H](CCC(=O)O)NC(=O)[C@H](CCCNC(=N)N)NC(=O)[C@H](C)NC(=O)[C@H](C)NC(=O)[C@H](CCCNC(=N)N)NC(=O)[C@H](C)NC(=O)[C@H](CCCNC(=N)N)NC(=O)[C@H](C)NC(=O)[C@H](CCC(N)=O)NC(=O)[C@H](CCC(=O)O)NC(=O)[C@H](CC(C)C)NC(=O)[C@H](CC(C)C)NC(=O)[C@@H](NC(=O)[C@H](CCC(N)=O)NC(=O)[C@H](CC(C)C)NC(=O)[C@H](CC(C)C)NC(=O)CNC(=O)[C@@H](NC(=O)[C@@H]1CCCN1C(=O)[C@@H](NC(=O)[C@H](CC(=O)O)NC(=O)[C@H](CC(C)C)NC(=O)[C@H](CO)NC(=O)[C@H](CC(C)C)NC(=O)[C@@H](NC(=O)[C@@H](NC(=O)[C@@H](N)CCCCNC(=O)COCCOCCNC(=O)COCCOCCNC(=O)CC[C@H](NC(=O)CC[C@H](NC(=O)CC[C@H](NC(=O)CCCCCCCCCCCCCCCCCCC(=O)O)C(=O)O)C(=O)O)C(=O)O)[C@@H](C)CC)C(C)C)C(C)C)[C@@H](C)CC)[C@@H](C)CC)[C@@H](C)O)[C@@H](C)O)C(=O)N[C@@H](CCC(=O)O)C(=O)N[C@@H](C)C(=O)N[C@@H](CCCNC(=N)N)C(=O)N[C@H](C(N)=O)C(C)C` [Compound 9] (H-K([AEEA-AEEA-γGlu-γGlu-γGlu-C20 diacid])IVLSLDVPIGLLQILLEQARARAAREQATTNARIEARV-NH2), the results for the IC50 at Human CRF2 receptor and at Human CRF1 receptor were 897 nM and > 1000 nM, respectively.
`CC[C@H](C)[C@H](NC(=O)[C@H](CCC(=O)O)NC(=O)[C@H](C)NC(=O)[C@H](CC(N)=O)NC(=O)[C@@H](NC(=O)[C@@H](NC(=O)[C@H](C)NC(=O)[C@H](CCC(N)=O)NC(=O)[C@H](CCC(=O)O)NC(=O)[C@H](CCCNC(=N)N)NC(=O)[C@H](C)NC(=O)[C@H](C)NC(=O)[C@H](CCCNC(=N)N)NC(=O)[C@H](C)NC(=O)[C@H](CCCNC(=N)N)NC(=O)[C@H](C)NC(=O)[C@H](CCC(N)=O)NC(=O)[C@H](CCC(=O)O)NC(=O)[C@H](CC(C)C)NC(=O)[C@H](CC(C)C)NC(=O)[C@@H](NC(=O)[C@H](CCC(N)=O)NC(=O)[C@H](CC(C)C)NC(=O)[C@H](CC(C)C)NC(=O)CNC(=O)[C@@H](NC(=O)[C@@H]1CCCN1C(=O)[C@@H](NC(=O)[C@H](CC(=O)O)NC(=O)[C@H](CC(C)C)NC(=O)[C@H](CO)NC(=O)[C@H](CC(C)C)NC(=O)[C@@H](NC(=O)[C@@H](NC(=O)[C@@H](N)CCCCNC(=O)COCCOCCNC(=O)COCCOCCNC(=O)CC[C@H](NC(=O)CC[C@H](NC(=O)CC[C@H](NC(=O)CCCCCCCCCCCCCCCCCCC(=O)O)C(=O)O)C(=O)O)C(=O)O)[C@@H](C)CC)C(C)C)C(C)C)[C@@H](C)CC)[C@@H](C)CC)[C@@H](C)O)[C@@H](C)O)C(=O)N[C@@H](CCC(=O)O)C(=O)N[C@@H](C)C(=O)N[C@@H](CCCNC(=N)N)C(=O)N[C@H](C(N)=O)C(C)C` [Compound 10] (H-K([AEEA-AEEA-γGlu-γGlu-γGlu-C20 diacid])IVLSLDVPIGLLQILLEQARARAAREQATTNAEIEARV-NH2): the results for the IC50 at Human CRF2 receptor and on Human CRF1 receptor were 569 nM and > 1000 nM, respectively.
For `CC[C@H](C)[C@H](NC(=O)[C@H](CCC(=O)O)NC(=O)[C@H](C)NC(=O)[C@H](CC(N)=O)NC(=O)[C@@H](NC(=O)[C@@H](NC(=O)[C@H](C)NC(=O)[C@H](CCC(N)=O)NC(=O)[C@H](CCC(=O)O)NC(=O)[C@H](CCCNC(=N)N)NC(=O)[C@H](C)NC(=O)[C@H](C)NC(=O)[C@H](CCCNC(=N)N)NC(=O)[C@H](C)NC(=O)[C@H](CCCNC(=N)N)NC(=O)[C@H](C)NC(=O)[C@H](CCC(N)=O)NC(=O)[C@H](CCC(=O)O)NC(=O)[C@H](CC(C)C)NC(=O)[C@H](CC(C)C)NC(=O)[C@@H](NC(=O)[C@H](CCC(N)=O)NC(=O)[C@H](CC(C)C)NC(=O)[C@H](CC(C)C)NC(=O)CNC(=O)[C@@H](NC(=O)[C@@H]1CCCN1C(=O)[C@@H](NC(=O)[C@H](CC(=O)O)NC(=O)[C@H](CC(C)C)NC(=O)[C@H](CO)NC(=O)[C@H](CC(C)C)NC(=O)[C@@H](NC(=O)[C@@H](N)CCCCNC(=O)COCCOCCNC(=O)COCCOCCNC(=O)CC[C@H](NC(=O)CC[C@H](NC(=O)CC[C@H](NC(=O)CCCCCCCCCCCCCCCCCCC(=O)O)C(=O)O)C(=O)O)C(=O)O)C(C)C)C(C)C)[C@@H](C)CC)[C@@H](C)CC)[C@@H](C)O)[C@@H](C)O)C(=O)N[C@@H](CC(C)C)C(=O)N[C@@H](CCC(=O)O)C(=O)N[C@@H](CCCNC(=N)N)C(=O)N[C@H](C(N)=O)C(C)C` [Compound 11] (H-K([AEEA-AEEA-γGlu-γGlu-γGlu-C20 diacid])VLSLDVPIGLLQILLEQARARAAREQATTNAEILERV-NH2), the IC50 at Human CRF2 receptor is 196 nM; on Human CRF1 receptor, > 1000 nM.
Compound “DNPSLSIDLTFHLLRTLLELARTQSQRERAEQNRIIFDSV-NH2 [Compound 1]” yielded an IC50 at Human CRF2 receptor of 0.12 nM. This counts as sub-nanomolar.
With “N{ε}-[[[(4S)-4-carboxy-4-[[(4S)-4-carboxy-4-[[(4S)-4-carboxy-4-(19-carboxynonadecanoylamino)butanoyl]amino]butanoyl]amino]butanoyl]amino]ethoxy]ethoxy]a cetyl]amino]ethoxy]ethoxy]acetyl]Lys-[Glu33]-hUcn2 [Compound 6]”, in data set [1], the “Average purity loss per week” value stood at 0.90%. Also, in data set [2], the Particle formation onset came out at 1 days.
As to “N{ε}-[[[(4S)-4-carboxy-4-[[(4S)-4-carboxy-4-[[(4S)-4-carboxy-4-(19-carboxynonadecanoylamino)butanoyl]amino]butanoyl]amino]butanoyl]amino]ethoxy]ethoxy]a cetyl]amino]ethoxy]ethoxy]acetyl]Lys-[Glu36]-hUcn2 [Compound 7]”, the “Average purity loss per week” value in data set [1] was determined as 3.95%. In data set [2], this compound showed a Particle formation onset of 7 days.
“N{ε}-[[[(4S)-4-carboxy-4-[[(4S)-4-carboxy-4-[[(4S)-4-carboxy-4-(19-carboxynonadecanoylamino)butanoyl]amino]butanoyl]amino]butanoyl]amino]ethoxy]ethoxy]a cetyl]amino]ethoxy]ethoxy]acetyl]Lys-[Glu37]-hUcn2 [Compound 8]”: the “Average purity loss per week” value in data set [1] was found to be 2.43%.
For the compound “N{ε}-[[[(4S)-4-carboxy-4-[[(4S)-4-carboxy-4-[[(4S)-4-carboxy-4-(19-carboxynonadecanoylamino)butanoyl]amino]butanoyl]amino]butanoyl]amino]ethoxy]ethoxy]a cetyl]amino]ethoxy]ethoxy]acetyl]Lys-hUcn2 [Compound 5]”, in data set [1], the “Average purity loss per week” value is listed as “Not soluble”. In addition, the “Solubility (not soluble at concentrations of)” value is < 700 µM in data set [1] (pH 7.4) and < 20 mg/mL in data set [2] (pH 7.4). Further, the Particle formation onset entry in data set [2] was “Not soluble”.
